Molecular target: T1, Avi-tagged FL MALT-1 (Homo sapiens, UniProt Q9UDY8)
T1 construct: Avi-tagged FL MALT-1 (Pharmaron, stored at −70° C.); Avi-tag; purchased Pharmaron
T1 sequence (Q9UDY8 1-824): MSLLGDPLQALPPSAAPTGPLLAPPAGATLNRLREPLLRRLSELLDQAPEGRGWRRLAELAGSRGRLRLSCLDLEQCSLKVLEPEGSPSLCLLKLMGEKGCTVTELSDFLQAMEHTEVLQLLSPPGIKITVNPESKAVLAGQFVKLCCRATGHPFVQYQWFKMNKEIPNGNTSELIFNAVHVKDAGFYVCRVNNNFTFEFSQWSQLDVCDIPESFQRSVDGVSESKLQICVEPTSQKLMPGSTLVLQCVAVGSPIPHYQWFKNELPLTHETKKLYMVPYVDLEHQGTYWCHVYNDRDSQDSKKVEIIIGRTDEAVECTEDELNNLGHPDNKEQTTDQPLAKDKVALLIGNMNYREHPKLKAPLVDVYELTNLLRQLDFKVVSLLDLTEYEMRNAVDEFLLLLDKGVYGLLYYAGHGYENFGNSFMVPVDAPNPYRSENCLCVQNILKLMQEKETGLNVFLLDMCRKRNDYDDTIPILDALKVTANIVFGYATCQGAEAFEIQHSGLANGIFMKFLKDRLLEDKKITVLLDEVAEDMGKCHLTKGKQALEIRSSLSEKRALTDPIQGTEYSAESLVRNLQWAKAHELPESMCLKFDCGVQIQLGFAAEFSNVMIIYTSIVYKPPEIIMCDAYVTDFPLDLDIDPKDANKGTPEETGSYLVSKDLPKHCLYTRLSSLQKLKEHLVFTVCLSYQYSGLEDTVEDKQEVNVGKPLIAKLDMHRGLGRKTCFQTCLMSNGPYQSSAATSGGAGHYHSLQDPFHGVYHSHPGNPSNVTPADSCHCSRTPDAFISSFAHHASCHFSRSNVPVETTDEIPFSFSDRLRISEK
Experiment: MALT-1 Fluorogenic Peptide Cleavage Assay (MALT1 inhibition assay)
Assay type: biochemical
Conditions: Ac-LRSR-AMC peptide substrate; 30 min pre-incubation, 90 min reaction at room temperature; fluorescence
How it was run: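 Full-length Avi-tagged enzyme preincubated 30 min at room temperature with compound (2% DMSO final) in HEPES pH 6.89 buffer with sodium citrate, TCEP, EDTA and CHAPS. Ac-LRSR-AMC substrate added at Km or 10×Km (working stocks 50 or […] μM); fluorescence (ex 342/em 441 nm) after 90 min; IC50 from sigmoidal fit.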

SMILES | IC50 [nM]
CN(C)c1nsc(C(=O)Nc2ccnc(C(F)(F)F)c2)c1C1CC1 [I-125] | > 2500
Cn1nc2cccc(-c3nsc(C(=O)Nc4cnc(-n5nccn5)c(C#N)c4)c3C3CC3)c2n1 [I-126] | ≤ 400
Cn1nnc2c(-c3nsc(C(=O)Nc4cnc(-n5nccn5)c(C#N)c4)c3C3CC3)cccc21 [I-127] | ≤ 400
Cn1ccc(-c2nsc(C(=O)Nc3cnc(-n4nccn4)c(C#N)c3)c2C(F)(F)F)cc1=O [I-128, N-(5-cyano-6-(2H-1,2,3-triazol-2-yl)pyridin-3-yl)-3-(1-methyl-2-oxo-1,2-dihydropyridin-4-yl)-4-(trifluoromethyl)isothiazole-5-carboxamide] | > 2500
CC(=O)N1CC(c2nsc(C(=O)Nc3cnc(-n4nccn4)c(C#N)c3)c2C(F)(F)F)C1 [I-129, 3-(1-acetylazetidin-3-yl)-N-[5-cyano-6-(1,2,3-triazol-2-yl)pyridin-3-yl]-4-(trifluoromethyl)-1,2-thiazole-5-carboxamide] | > 2500
CN1CC(c2nsc(C(=O)Nc3cnc(-n4nccn4)c(C#N)c3)c2C(F)(F)F)C1 [I-130, N-[5-cyano-6-(1,2,3-triazol-2-yl)pyridin-3-yl]-3-(1-methylazetidin-3-yl)-4-(trifluoromethyl)-1,2-thiazole-5-carboxamide] | > 2500
N#Cc1cc(NC(=O)c2snc(-c3cccc4nccn34)c2C2CC2)cnc1-n1nccn1 [I-131, N-(5-cyano-6-(2H-1,2,3-triazol-2-yl)pyridin-3-yl)-4-cyclopropyl-3-(imidazo[1,2-a]pyridin-5-yl)isothiazole-5-carboxamide] | ≤ 400
O=C(Nc1ccnc(C(F)(F)F)c1)c1snc(-c2cccc3nccn23)c1C1CC1 [I-132, 4-cyclopropyl-3-(imidazo[1,2-a]pyridin-5-yl)-N-(2-(trifluoromethyl)pyridin-4-yl)isothiazole-5-carboxamide] | ≤ 400
O=C(Nc1ccc(C(=O)N2CC(O)C2)c(Cl)c1)c1snc(-c2cccc3ncccc23)c1C1CC1 [I-133, N-(3-chloro-4-(3-hydroxyazetidine-1-carbonyl)phenyl)-4-cyclopropyl-3-(quinolin-5-yl)isothiazole-5-carboxamide] | ≤ 400
CN1CC=C(c2nsc(C(=O)Nc3cnc(-n4nccn4)c(C#N)c3)c2C2CC2)CC1 [I-134, N-(5-cyano-6-(2H-1,2,3-triazol-2-yl)pyridin-3-yl)-4-cyclopropyl-3-(1-methyl-1,2,3,6-tetrahydropyridin-4-yl)isothiazole-5-carboxamide] | > 2500

Other lines, results leading:

IC50 [nM] | SMILES
≤ 400 | O=C(Nc1ccnc(C(F)(F)F)c1)c1snc(-c2ccccc2Cl)c1C1CC1 [I-135, 3-(2-chlorophenyl)-4-cyclopropyl-N-[2-(trifluoromethyl)pyridin-4-yl]-1,2-thiazole-5-carboxamide]
≤ 400 | O=C(Nc1ccnc(C(F)(F)F)c1)c1snc(-c2ccc(Cl)cc2)c1C1CC1 [I-136, 3-(4-chlorophenyl)-4-cyclopropyl-N-[2-(trifluoromethyl)pyridin-4-yl]-1,2-thiazole-5-carboxamide]
400 to 1000 | O=C(Nc1ccnc(C(F)(F)F)c1)c1snc(-c2ccc(C(F)(F)F)cc2)c1C1CC1 [I-137, 4-cyclopropyl-3-[4-(trifluoromethyl)phenyl]-N-[2-(trifluoromethyl)pyridin-4-yl]-1,2-thiazole-5-carboxamide]
≤ 400 | O=C(Nc1ccnc(C(F)(F)F)c1)c1snc(-c2cccc(C(F)(F)F)c2)c1C1CC1 [I-138, 4-cyclopropyl-3-(3-(trifluoromethyl)phenyl)-N-(2-(trifluoromethyl)pyridin-4-yl)isothiazole-5-carboxamide]
≤ 400 | O=C(Nc1ccnc(C(F)(F)F)c1)c1snc(-c2cccc(Cl)c2)c1C1CC1 [I-139, 3-(3-chlorophenyl)-4-cyclopropyl-N-(2-(trifluoromethyl)pyridin-4-yl)isothiazole-5-carboxamide]
≤ 400 | Cc1ccc(-c2nsc(C(=O)Nc3ccnc(C(F)(F)F)c3)c2C2CC2)c2cccnc12 [I-140, 4-cyclopropyl-3-(8-methylquinolin-5-yl)-N-[2-(trifluoromethyl)pyridin-4-yl]-1,2-thiazole-5-carboxamide]

From patent US20260124222A1, “ISOTHIAZOLYLCARBOXAMIDE COMPOUNDS AND THEIR USE IN THERAPY” (HOTSPOT THERAPEUTICS, INC., priority 2022, published 2026)
